The source of these data is patent publication US20240139172A1, “PIPERIDINE UREA DERIVATIVES FOR CANCER THERAPY” (NeuroPn Therapeutics, Inc., priority 2022, published 2024).

The subject of this series is adult zebrafish. The experiment in a line: Paclitaxel-induced peripheral neuropathy in adult zebrafish (number of stimuli until twitch). Format: in vivo. As to conditions: 3 μL of 10-μM paclitaxel solution for four consecutive days, FIG. 9. As to the method: Method to evaluate potential of compounds of Formula 1 to reduce or block chemotherapy-induced peripheral neuropathy—Animal (zebrafish) model described below and in literature (Lisse T S et al PNAS 113 (15) E2189-E2198) was used to evaluate potential of compounds of Formula 1 to reduce or block neuronal damage induced by chemotherapeutics.
To induce peripheral neuropathy in adult zebrafish, 3 μL of a 10-μM paclitaxel solution in 0.15% DMSO was administered with a 33 gauge Hamilton Syringe for a zebrafish with average ˜200 mg body weight. Fish were treated with vehicle alone or paclitaxel for four consecutive days (Days 2-5) or paclitaxel with Compound A (10- or 30 ng). Compound A was dosed orally by mixing with the fish feed pellets. Fishes were conditioned to consume three pellets a day. […] To prepare test compound infused pellet, a known quantity of the compound was mixed with the known quantity of the feed powder and were extruded in to 4 mg pellet containing the desired administration dose per pellet. Concentration of test compound dosed per fish were controlled by the number of pellets and the quantity of compound per pellet. […]
To determine the peripheral nerve damage, fish were wrapped in plastic foil until calm, and the distal tail fin was stimulated with an insect pin until twitching of the fish was observed. Number of stimuli until twitch was recorded.

As for `CC(=O)O[C@H]1C(=O)[C@@]2(C)[C@H]([C@H](OC(=O)c3ccccc3)[C@]3(O)C[C@H](OC(=O)[C@H](O)[C@@H](NC(=O)c4ccccc4)c4ccccc4)C(C)=C1C3(C)C)[C@]1(OC(C)=O)CO[C@@H]1C[C@@H]2O` [paclitaxel], the “peripheral nerve damage (increase in number of stimuli needed) compared to vehicle alone” value is recorded as “significant nerve damage”.
